Measurements taken from publication PMC6292860, “Characterisation of small molecule ligands 4CMTB and 2CTAP as modulators of human FFA2 receptor signalling” (Scientific Reports, 2018).

Legend:
parental CHO-K1 cells = assay: Ca^2+, pERK1/2 and cAMP assays on the parental CHO-K1 cell line (specificity control); format: cell-based, Chinese Hamster; conditions: highest concentration of ligand
Procedure: These cells were cultured in Ham’s F12, 10% FBS and 1% penicillin streptomycin. Cells were passaged when 70–80% confluent using 0.05% trypsin: EDTA in phosphate-buffered saline (PBS), pH 7.4. All cells in culture, once seeded, were incubated at 37 °C with 5% CO2.
(§1) Fluo-4 Direct assay was preformed according to manufacturer’s instructions with additional wash steps and read on a Fluorescent Imaging Plate Reader (FLIPR) (Molecular Devices, California). Briefly, 10,000 cells were seeded/well in 10 μL of media in a 384 well block with a clear bottom plate and incubated overnight at 37 °C. An equivalent volume of 2x Flou-4 Direct calcium reagent was added to each well and incubated for 30 min at 37 °C and a further 30 min at room temperature. Ligand addition was carried out on the FLIPR instrument whilst fluorescence was measured at excitation 494 nm and emission at 516 nm for five minutes to enable capture of the fast calcium response.
(§2) To measure pERK1/2 we utilised the high throughput AlphaScreen SureFire pERK1/2 (Thr202/Tyr204) Assay Kit (PerkinElmer)[42]. Detection of pERK1/2 is enabled by immuno-sandwich capture of endogenous pERK1/2 in cell lysates. Antibody-coated AlphaScreen beads generate a highly amplified signal when near due to binding of pERK1/2. Cells were seeded at 50,000 cells/well in a 96 well tissue culture plate and incubated for 24 hours at 37 °C. Cells were then incubated in serum free media overnight. Test compounds were added to the cells and incubated for 10 min at room temperature before cells were lysed and assayed for pERK1/2 using the AlphaScreen-based detection kit according to the manufacturer’s protocol (PerkinElmer).
The LANCE Ultra cAMP homogeneous time resolved resonance energy transfer (TR-FRET) immunoassay (PerkinElmer) provides a highly sensitive and robust method for the detection of cAMP. […] Time- resolved FRET signals were measured after excitation at 320 nm on the EnVision. […]

hFFA2 [1] = biological target: T1, hFFA2 (Homo sapiens, UniProt O15552); assay: AlphaScreen SureFire pERK1/2 (Thr202/Tyr204) assay in CHO cells stably expressing hFFA2; format: cell-based; conditions: for pERK1/2 response (in words): ligand alone; for Emax: CHO
T1 construct: host or cells: CHO-K1
T1 sequence (O15552 1-330): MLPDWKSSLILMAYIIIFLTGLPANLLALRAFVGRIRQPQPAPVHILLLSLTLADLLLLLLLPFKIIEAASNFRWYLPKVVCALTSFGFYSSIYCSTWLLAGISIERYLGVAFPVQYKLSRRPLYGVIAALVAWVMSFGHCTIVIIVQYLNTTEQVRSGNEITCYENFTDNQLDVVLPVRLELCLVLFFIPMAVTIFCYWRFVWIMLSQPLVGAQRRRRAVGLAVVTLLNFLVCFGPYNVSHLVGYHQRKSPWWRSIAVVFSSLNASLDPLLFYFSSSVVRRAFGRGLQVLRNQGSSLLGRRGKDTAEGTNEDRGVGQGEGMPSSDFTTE
Procedure: (§3) CHO-K1, stably expressing human FFA2 (CHO-FFA2) was purchased from DiscoverX Corporation. CHO-FFA2 cells were cultured in a buffer of Ham’s F12, 10% FBS, 1% penicillin streptomycin and 800 μg/mL of G418 (Geneticin) (Invitrogen Life Technologies). Cells were passaged when 70–80% confluent using 0.05% trypsin with 1 mM EDTA in phosphate-buffered saline (PBS), pH 7.4. All cells in culture, once seeded, were incubated at 37 °C with 5% CO2.
as §2

FFA2 = test system: FFA2; parameters: method as in earlier work; conditions: cited from earlier work
hFFA2 [2] = biological target: T1, hFFA2; assay: Fluo-4 Direct Ca^2+ flux assay in CHO cells stably expressing hFFA2; format: cell-based; conditions: for Ca^2+ response (in words): ligand alone
Procedure: as §3, §1

[3] = test system: intestinal ischemia reperfusion injury (IRI); assay: Mouse model of intestinal ischemia reperfusion injury (superior mesenteric artery occlusion); format: in vivo; conditions: for Circulating neutrophil numbers: IRI groups, WT mice; for Circulating neutrophil numbers / Mucosal (villi) damage, histopathological score of H&E-stained ileum / Neutrophil infiltration into the ileum (esterase-stained neutrophils, myeloperoxidase): oral gavage; for Mucosal (villi) damage, histopathological score of H&E-stained ileum / Neutrophil infiltration into the ileum (esterase-stained neutrophils, myeloperoxidase): WT IRI groups; for Circulating neutrophil counts: sham-operated mice, oral gavage 48 h, 24 h and 1 h prior to surgery, mean ± SEM
Excerpt: Specific pathogen-free (SPF) conventional C57BL/6J (WT) mice were obtained from the […] (ARC) and maintained at The University of Queensland Biological Resources Animal Facilities under specific pathogen-free conditions.
FFA2^−/− knockout mice were obtained from Monash University and bred at The University of Queensland Biological Resources Animal Facilities under SPF conditions. Male mice 10–12 weeks weighing 20–30 g were used for all experiments. All experiments were performed in accordance with the guidelines and approval of The University of Queensland Animal Ethics Committee.
After 35 minutes the ligature was removed to allow for a reperfusion period of 150 minutes. […] Mice were orally gavaged with ligand 48 hours, 24 hours and 1 hour prior to surgery. Mice were euthanised and small intestinal tissue or whole blood [collected in 1 mg/mL EDTA and 0.1 mg/mL nafamostat mesylate (FUT-175)] was collected for further analysis.

hFFA2 [4] = biological target: T1, hFFA2; assay: LANCE Ultra cAMP assay, inhibition of forskolin-induced cAMP, in CHO cells stably expressing hFFA2; format: cell-based; conditions: for Emax: CHO; for EC50: read-out: cAMP pEC50 (converted)
Procedure: as §3
The LANCE Ultra cAMP homogeneous time resolved resonance energy transfer (TR-FRET) immunoassay (PerkinElmer) provides a highly sensitive and robust method for the detection of cAMP. Briefly, cells were re-suspended in stimulation buffer (1 x HBSS, 5 mM HEPES, 0.5 mM IBMX, 0.1% BSA (pH7.4)) and transferred to 384-proxiplate (PerkinElmer) at a density of 2000 cells/well. Cells were stimulated with agonist and forskolin (5 μM), where appropriate, and incubated for 30 min. EucAMP tracer and ULight-anti-cAMP solutions were added to the cells and incubated for 1 hour at room temperature. Time- resolved FRET signals were measured after excitation at 320 nm on the EnVision. All data were normalized to the functional response obtained with 1.67 mM sodium acetate.

[5] = antagonist mode, inhibition of ERK activation by 2 mM acetate, read-out: pERK1/2 pEC50 (Antagonist) (converted)
[6] = 2CTAP + Acetate (2CTAP dose response in the presence of 2 mM acetate, Fig. 6A), read-out: Ca^2+ pEC50 (converted)
[7] = antagonist mode, concentration-dependent decrease in Ca^2+, read-out: Ca^2+ pEC50 (Antagonist) (converted)
[8] = + PTX, read-out: pERK1/2 pEC50 (converted)
[9] = + PTX, percentage of the maximal response from acetate
[10] = ligand alone (agonist mode), CHO-hFFA2, expressed as a percentage of the maximal response from acetate
[11] = ligand alone (agonist mode), CHO-hFFA2, read-out: pERK1/2 pEC50 (converted)
[12] = inhibition of forskolin-induced cAMP, ligand alone, expressed as a percentage of the maximal response from acetate
[13] = inhibition of forskolin-induced cAMP, ligand alone (agonist mode), CHO-hFFA2
[14] = ligand alone (agonist mode), CHO-hFFA2
[15] = 4CMTB at 20 µM on an acetate dose response curve
[16] = 4CMTB below 1 µM on an acetate dose response curve

SMILES | Response in parental CHO-K1 cells (parental CHO-K1 cells) | EC50 (hFFA2 [1]; [5]) | pERK1/2 response (in words) (hFFA2 [1]; CHO-hFFA2) | EC50 (hFFA2 [2]; [6]) | EC50 (hFFA2 [2]; [7]) | Ca^2+ response (in words) (hFFA2 [2]; CHO-hFFA2) | Circulating neutrophil numbers [3] | Neutrophil infiltration into the ileum (esterase-stained neutrophils, myeloperoxidase) [3] | forskolin-induced cAMP response (in words) (hFFA2 [4]; ligand alone, CHO-hFFA2) | EC50 (hFFA2 [1]; [8]) | Emax (hFFA2 [1]; [9]) | Emax (hFFA2 [1]; [10]) | EC50 (hFFA2 [1]; [11]) | Emax (hFFA2 [4]; [12]) | EC50 (hFFA2 [4]; [13]) | further results
O=C(O)CC(C(=O)Nc1nc(-c2ccccc2Cl)cs1)c1ccccc1 (racemic) [R/S-2CTAP, 4-((4-(2-chlorophenyl)thiazole-2-yl)amino)-4oxo-3-phenylbutanoic acid] | No response | 15800 nM | no effect | 631 nM | 1000 nM | concentration-dependent decrease in Ca^2+ | comparable to vehicle control IRI-groups | did not reduce neutrophil infiltration below the IRI group | no effect |  |  |  |  |  |  | Concentration of maximal response in the GTPγS assay (FFA2): 60 nM; Protective effects in IRI in the absence of FFA2 ([3]; FFA2^−/− mice, IRI): abolished; Mucosal (villi) damage, histopathological score of H&E-stained ileum [3]: mucosal damage was significantly reduced
CC(C)C(C(=O)Nc1nccs1)c1ccc(Cl)cc1 (racemic) [R/S-4CMTB, 2-(4-chlorophenyl)-3-methyl-N-(thiazole-2-yl)butanamide] | No response |  |  |  |  | did not induce a Ca^2+ response |  |  |  | 20000 nM | 20% | 85% | 1580 nM | 83% | 100 nM | 
CC(=O)O [Acetate] | No response |  |  |  |  |  |  |  |  |  |  |  |  |  |  | pERK1/2 pEC50 (hFFA2 [1]; [14]): 3.6; pERK1/2 Emax (hFFA2 [1]; [10]): 100; Ca^2+ pEC50 (hFFA2 [2]; [14]): 3.8; Ca^2+ Emax (hFFA2 [2]; [10]): 100; cAMP pEC50 (hFFA2 [4]; [13]): 3.9; cAMP Emax (hFFA2 [4]; [12]): 100
O=C(O)C[C@@H](C(=O)Nc1nc(-c2ccccc2Cl)cs1)c1ccccc1 [R-2CTAP, 4-((4-(2-chlorophenyl)thiazole-2-yl)amino)-4oxo-3-phenylbutanoic acid] |  | 2510 nM | no effects | 251 nM | 251 nM | decreased Ca^2+ |  |  | no effects |  |  |  |  |  |  | 
CC(C)[C@@H](C(=O)Nc1nccs1)c1ccc(Cl)cc1 [R-4CMTB, 2-(4-chlorophenyl)-3-methyl-N-(thiazole-2-yl)butanamide] |  |  |  |  |  | no effect | comparable to vehicle control IRI-groups | did not reduce neutrophil infiltration below the IRI group |  | 20000 nM | 16% | 60% | 10000 nM | 74% | 6310 nM | Allosteric modulation of acetate Ca^2+ response (hFFA2 [2]; [15]): mild effect on the potency of acetate but did not increase the efficacy; Allosteric modulation of acetate Ca^2+ response (hFFA2 [2]; [16]): negative allosteric modulators; Circulating neutrophil counts [3]: 0.81 × 10^6 ± 0.11
O=C(O)C[C@H](C(=O)Nc1nc(-c2ccccc2Cl)cs1)c1ccccc1 [S-2CTAP, 4-((4-(2-chlorophenyl)thiazole-2-yl)amino)-4oxo-3-phenylbutanoic acid] |  | 39800 nM | no effects | 1580 nM | 2000 nM | decreased Ca^2+ |  |  | no effects |  |  |  |  |  |  | 
CC(C)[C@H](C(=O)Nc1nccs1)c1ccc(Cl)cc1 [S-4CMTB, 2-(4-chlorophenyl)-3-methyl-N-(thiazole-2-yl)butanamide] |  |  |  |  |  |  | comparable to vehicle control IRI-groups | increased neutrophil infiltration into the villi |  | 15800 nM | 22% | 102% | 794 nM | 99% | 158 nM | Allosteric modulation of acetate Ca^2+ response (hFFA2 [2]; [15]): increased both the potency and efficacy of acetate; Allosteric modulation of acetate Ca^2+ response (hFFA2 [2]; [16]): negative allosteric modulators; Emax (hFFA2 [2]; [10]): 55%; EC50 (hFFA2 [2]; ligand alone (agonist mode), CHO-hFFA2, read-out: Ca^2+ pEC50 (converted)): 2000 nM; Mucosal (villi) damage, histopathological score of H&E-stained ileum [3]: did not reduce villi damage; Circulating neutrophil counts [3]: 0.92 × 10^6 ± 0.07
